Test results published in patent publication US7795225B2, “Anti-chrondrosarcoma compounds” (priority 2003, dated 2010).
Entries after “also recorded” stand apart in the source; their conditions may differ. Where no end group is shown, it is not given here.

Assays:
[1] = tested on: Human chondrosarcoma cells (SW1351); assay: Chondrosarcoma cell proliferation (CellTiter 96 Aqueous One, absorbance 490 nm); format: cell-based
Protocol: Human chondrosarcoma cells (SW1351) were purchased from the American Type Culture Collection (ATCC No. HTB-94). A frozen vial of cells was thawed by gentle agitation in a 37° C. water bath for about 2 minutes. The vial was decontaminated with 70% ethanol and the cells were transferred to a T75 flask containing pre-wanned Leibovitz's L-15 medium (ATCC Catalog No. 30-2008) with 10% fetal bovine serum. The culture as incubated at 37° C. until 80% confluence. The culture medium was removed and the cells were dissociated from the T75 flask using 3 ml 0.25% trypsin, 0.03 mM EDTA at 37° C. After incubation for 5 minutes, 8 ml culture medium was added to stop trypsinization. The cells were counted with trypan blue and then seeded in 96 well plates at a density of about 2500 cells/well.
Six separate cell cultures were tested at each concentration of each peptide (n=6). Control cells received culture medium only.
Cell cultures were then incubated at 37° C. in an atmosphere of 5% CO2. Cell proliferation was determined after 18 or 72 hr by using the CellTiter 96 Aqueous One Solution purchased from Promega (Catalog No. TB245). Briefly, the CellTiter solution was warmed up to room temperature. Twenty microliters of the solution was added to each well. Cells were incubated at 37° C. for 1-2 hours. The absorbance at 490 nm was then recorded using a 96 well plate reader. The data were statistically analyzed using a Student T test. Differences were considered significant at the level of p<0.05.

[2] = target: pro-MMP-9 (Homo sapiens, UniProt P14780); assay: Anti-activation (anti-splicing) assay: conversion of pro-MMP-9 by stromilysin, HPLC; format: biochemical; conditions: 0.5 and 1.0 μM peptide, FIG. 12
Protocol: The assay measured how much proenzyme was converted into mature matrix metalloproteinase. Proenzyme pro-MMP-9 (100 μg) was mixed with 0.5 μg of stromilysin in PBS. The reaction was incubated at 35° C. Aliquots were removed from the reaction over an 80 minute time course. […] The zero (injection) time point was a single peak that elutes from the column in approximately 750 seconds. This peak reduced in size as a function of time, and two new peaks appeared. The first peak eluted at approximately 800 seconds, and represented the mature form of MMP-9. The second peak eluted at approximately 1100 seconds, and corresponded to the N-terminal pro-domain fragment. Peak areas were determined by integrating over the elution profile, and the percent area changes were plotted.
The first peak, eluting at approximately 700 seconds, is pro-MMP-9. As the splicing reaction proceeds, this peak decreases in intensity (as marked with the downwards arrow), and two new peaks appear. The first new peak, eluting at approximately 800 seconds, is mature and active MMP-9. The second new peak, eluting at approximately 1050 seconds, is the prodomain. As the splicing reaction proceeds, the intensity of these two peaks increases (as marked with the upwards arrows). When the reaction is complete, there is no detectable pro-MMP-9 remaining.

[3] = target: T1, MMP-9 (Homo sapiens, UniProt P14780); assay: Fluoresceinated collagen hydrolysis assay (fluorescein release); format: biochemical; conditions: extended time assay, FIG. 8
T1 construct: Active MMP-9 enzyme was purchased from Calbiochem; purchased Calbiochem
Protocol: Two enzymatic assays were performed. The first assay measured the enzymatic hydrolysis of fluoresceinated collagen by MMP-9 as a function of time. […] The protein mixture was added to the collagen substrate, and was quickly mixed. Fluorescence emission intensity at 520 nm was measured as a function of time (excitation wavelength 495 nm) in a Shimadzu RF5301 fluorimeter (Lakowicz, 1983). The fluorescein release assay was used to determine the inhibitory constant (Ki) of the peptide inhibitor ([I]) according to Segel (1993) via the use of Dixon plots (1/v vs. [I]), such that: slope=Km /(V max Ki [S]) (1) where Km is the Michaelis constant, Vmax is the reaction maximum velocity, and [S] is the substrate concentration.

[4] = tested on: C57BL6/KsJ db/db mice; assay: Wound healing in db/db diabetic mice; format: in vivo; conditions: single dose 5 μL of 20 μg/mL at day zero, saline control 14 days
From the text: Wounds were created in C57BL6/KsJ db/db mice with a 4 mm biopsy punch. The mice were obtained from The Jackson Laboratories and were aged 3-7 months before the onset of the wounding protocol. All mice were anesthetized prior to wounding. Two wounds were introduced onto the upper back of each animal by pulling the skin away from underlying structures and pushing the punch through the isolated skin. Typically, wounds were created to an average depth of 1.7 mm, with a range of 1.3 to 2.2 mm. No muscle involvement occurred during the course of wounding.
Each day the wounds were digitally photographed and wound areas were determined by computer integration of the photographs. All wound treatments and the subsequent data analyses were performed in a blind manner (see e.g., Brown et al., 1994). Wound area at the time of wounding (day 0) was arbitrarily set to a relative value of 1 for all wounds; such that subsequent wound areas were converted to relative wound areas by dividing the wound area at day n by the wound area at day zero.

T1 sequence (P14780 107-707 limits assumed): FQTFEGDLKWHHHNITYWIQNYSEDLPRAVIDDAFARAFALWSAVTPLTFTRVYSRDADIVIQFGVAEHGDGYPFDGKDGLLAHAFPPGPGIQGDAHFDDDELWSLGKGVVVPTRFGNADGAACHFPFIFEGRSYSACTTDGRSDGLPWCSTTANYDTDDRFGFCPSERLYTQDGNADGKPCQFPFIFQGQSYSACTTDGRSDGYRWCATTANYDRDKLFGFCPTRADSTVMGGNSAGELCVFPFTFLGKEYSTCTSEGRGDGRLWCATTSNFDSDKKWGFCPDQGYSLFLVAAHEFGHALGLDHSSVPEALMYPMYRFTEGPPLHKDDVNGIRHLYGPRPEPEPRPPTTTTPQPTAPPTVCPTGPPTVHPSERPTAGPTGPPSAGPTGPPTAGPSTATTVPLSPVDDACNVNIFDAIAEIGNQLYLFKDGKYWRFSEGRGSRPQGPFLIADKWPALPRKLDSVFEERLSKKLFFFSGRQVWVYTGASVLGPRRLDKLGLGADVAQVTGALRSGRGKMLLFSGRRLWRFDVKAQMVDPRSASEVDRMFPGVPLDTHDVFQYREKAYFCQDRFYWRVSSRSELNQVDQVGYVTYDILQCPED
Chain of pro-MMP-9 (P14780 20-707): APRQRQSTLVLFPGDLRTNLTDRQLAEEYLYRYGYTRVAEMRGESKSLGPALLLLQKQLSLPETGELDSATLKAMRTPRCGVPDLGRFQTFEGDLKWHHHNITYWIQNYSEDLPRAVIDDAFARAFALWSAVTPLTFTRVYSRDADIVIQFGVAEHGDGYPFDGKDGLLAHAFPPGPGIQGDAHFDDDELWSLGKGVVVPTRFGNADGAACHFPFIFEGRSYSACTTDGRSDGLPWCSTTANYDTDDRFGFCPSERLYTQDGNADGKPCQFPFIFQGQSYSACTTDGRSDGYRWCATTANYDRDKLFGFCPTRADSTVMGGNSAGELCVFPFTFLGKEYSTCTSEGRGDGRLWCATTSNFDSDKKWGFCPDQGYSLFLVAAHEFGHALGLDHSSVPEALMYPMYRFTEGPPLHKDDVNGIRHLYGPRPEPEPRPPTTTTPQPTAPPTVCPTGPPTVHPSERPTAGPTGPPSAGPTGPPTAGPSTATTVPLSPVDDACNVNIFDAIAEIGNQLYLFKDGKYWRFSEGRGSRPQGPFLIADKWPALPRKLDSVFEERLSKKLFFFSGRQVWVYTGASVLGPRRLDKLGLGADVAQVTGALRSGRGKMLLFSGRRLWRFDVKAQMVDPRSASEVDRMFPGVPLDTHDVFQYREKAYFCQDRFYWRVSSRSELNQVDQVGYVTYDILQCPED

Molecule: CC(C)[C@H](NC(=O)[C@H](CC(=O)O)NC(=O)[C@@H]1CCCN1C(=O)[C@H](CC(N)=O)NC(=O)CNC(=O)[C@H](CS)NC(=O)[C@H](CCCNC(=N)N)NC(=O)[C@@H]1CCCN1)C(=O)N[C@@H](C)C(=O)N[C@@H](CC(N)=O)C(=O)N[C@@H](Cc1ccc(O)cc1)C(=O)N[C@@H](CC(N)=O)C(=O)N[C@@H](Cc1ccccc1)C(=O)N[C@@H](Cc1ccccc1)C(=O)N1CCC[C@H]1C(=O)N[C@@H](CCCNC(=N)N)C(=O)N[C@@H](CCCCN)C(=O)N1CCC[C@H]1C(=O)N[C@@H](CCCCN)C(=O)O [19-mer]
- chondrosarcoma cell proliferation vs untreated cells ([1]; 18 hours, 10^−4 M, p<0.05): significantly inhibits or depresses growth; also recorded: significantly inhibited
- chondrosarcoma cell proliferation vs untreated cells ([1]; 72 hours, 10^−4 M, p<0.05): substantially less
- inhibition of splicing (conversion of pro-MMP-9 into prodomain and active enzyme) [2]: inhibited in a dose dependent manner
- period of time of effective inhibition of MMP-9 catalyzed hydrolysis of collagen [3]: > 1000 min
- time to full wound closure post wounding [4]: 9 days

Molecule: PRCGNPDVA [9-mer]
- chondrosarcoma cell proliferation vs untreated cells ([1]; 18 hours, 10^−4 M, p<0.05): significantly inhibits or depresses growth; also recorded: significantly inhibited
- chondrosarcoma cell proliferation vs untreated cells ([1]; 72 hours, 10^−4 M, p<0.05): substantially less
- chondrosarcoma cell proliferation vs untreated cells ([1]; 72 hours, 10^−5 M, p<0.05): significantly reduced

Molecule: NYNFFPRKPK [10-mer]
- chondrosarcoma cell proliferation vs untreated cells ([1]; 18 hr, three concentrations tested (10^−6, 10^−5, 10^−4 M)): did not show any significant effect
- chondrosarcoma cell proliferation vs untreated cells ([1]; 72 hours, 10^−4 M, p<0.05): substantially less
